Data reported in patent US10159685B2, “Vascular calcification” (Cambridge Enterprise Limited, priority 2016, dated 2018).

Tested on: human vascular smooth muscle cells (hVSMCs)
Experiment: o-Cresolphthalein Ca2+ assay, hVSMC Ca/P calcification model (Examples 7-9)
Assay type: cell-based
Settings: for Inhibition of calcification, normalised results (FIG. 27) / Normalised calcium levels (mass of calcium per mass of protein, FIG. 22): hVSMCs, 8 days; for Inhibition of calcification, normalised results (FIG. 27): concentrations between 0.05 μM and 3 μM; for Extracellular matrix calcification (summary statement): bovine cell and human cell in vitro vascular calcification model; for Normalised calcium levels (mass of calcium per mass of protein, FIG. 22): 3 μM
Experimental: (§1) Primary hVSMCs were cultured in M199 media containing FBS (M199/5% FBS). They were plated at a known cell density, allowed to grow for 24 hours and then treated with control (DMSO only) or calcification media (DMSO containing 2.7 mM Calcium+2.5 mM phosphate)+/−inhibitors. After 6 days, calcification was assessed using the o-Cresolphthalein assay for quantification of Ca^2+ deposition and a BioRad protein assay for protein content.
Medium+/−inhibitors was exchanged every 2-3 days.
as §1, with “8” for “6”, “using” for “using the”
All of the compounds tested were used at a concentration of 3 μM. Medium+/−inhibitors was exchanged every 2-3 days.
as §1, with “phosphate)+/−compounds.” for “phosphate)+/−inhibitors.”, “8” for “6”, “using” for “using the”
These concentrations were chosen to mimic the systemic concentrations of these drugs following patient dosing according to the dose schedule in the prescribing information for each drug. Medium+/−inhibitors was exchanged every 2-3 days.

Row | Compound | Inhibition of calcification, normalised results (FIG. 27) | Extracellular matrix calcification (summary statement) | Normalised calcium levels (mass of calcium per mass of protein, FIG. 22)
1 | CCCCc1nc(Cl)c(CO)n1Cc1ccc(-c2ccccc2-c2nn[nH]n2)cc1 [losartan] | do not inhibit medial vascular calcification |  | 
2 | NC(=O)c1cccc2cn(-c3ccc([C@@H]4CCCNC4)cc3)nc12 [niraparib] |  | significantly reduce extracellular matrix calcification | particularly effective
3 | O=C(c1cc(Cc2n[nH]c(=O)c3ccccc23)ccc1F)N1CCN(C(=O)C2CC2)CC1 [olaparib] |  | significantly reduce extracellular matrix calcification | 
4 | CNCc1ccc(-c2[nH]c3cc(F)cc4c3c2CCNC4=O)cc1 [rucaparib] |  | significantly reduce extracellular matrix calcification | particularly effective
5 | Cn1ncnc1[C@H]1c2n[nH]c(=O)c3cc(F)cc(c23)N[C@@H]1c1ccc(F)cc1 [talazoparib] |  | significantly reduce extracellular matrix calcification | 
6 | C[C@]1(c2nc3c(C(N)=O)cccc3[nH]2)CCCN1 [veliparib] | inhibit calcification significantly and repeatedly | significantly reduce extracellular matrix calcification | particularly effective
